Test results from patent US20200270647A1, “TRANSGENIC STRAIN FOR PRODUCING SUCCINATE AND METHOD FOR PRODUCING SUCCINATE” (NATIONAL CHIAO TUNG UNIVERSITY, priority 2019, published 2020).

System: PCC7942 cyanobacterium strain
Procedure: The bacterium amount (cell amount) was monitored by measuring the optical density (OD) of the culture medium at a wavelength of 730 nm using the Biotek epoch 2 microplate spectrophotometer. The OD730 is calculated based on a recalibration of an optical path length 1 cm.

Compound	growth inhibition effect on the cyanobacterium strain (wild-type PCC7942 in BG-11, different concentrations, cell density observed for three days, versus sodium chloride with same sodium concentration)	toxicity to the growth or persistence of the cyanobacterium strain
O=C([O-])CCC(=O)[O-].[Na+].[Na+] [disodium succinate]	almost equivalent to the growth inhibition effect of sodium chloride	
O=C(O)CCC(=O)O [succinate]		not toxic
